Tests used:
Format in all cases: in vivo
Amaranthus retroflexus = assay: Test Example 5: herbicidal effect by foliage application, plastic box (symbol N); details: 320 g/ha, 3 weeks after application
Summary of the method: (§1)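 Effect is rated 3 weeks after a foliar spray of water-diluted emulsion concentrate at a predetermined herbicide amount. Plants had grown 14 days in a 25° C. to 30° C. greenhouse from seed in sterilized diluvial soil.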

rice plant = assay: Test Example 5: effect on crop by foliage application, plastic box (symbol b); details: 320 g/ha, 3 weeks after application
Summary of the method: (§2)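 Box culture: sterile diluvial soil, seeds spot-sown, ~1.5 cm cover, raised under glass at 25–30° C.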

Monochoria vaginalis [1] = assay: Test Example 1: herbicidal activity, application before weed generation in submerged conditions (symbol C); details: application herbicide amount 320 g/ha
Summary of the method: (§3)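 Weeds are sown into submerged alluvial soil alongside transplanted 2.5-leaf rice, and the compound, as an emulsion diluted to a set rate, is applied onto the water before emergence. Rating on the 0–5 herbicidal-ratio scale follows 3 weeks of greenhouse growth at 25–30 °C.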

beet [2] = assay: Test Example 4: effect on crop by soil treatment (symbol f); details: for Effect on crop grade, f: beet: application herbicide amount 320 g/ha; for f: beet, effect grade on crop: 320 g/ha
Summary of the method: (§4)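 Seeds were sown in spots on sterilized diluvial soil in a plastic box and covered with about 1.5 cm of soil. Plants were then grown in a greenhouse at 25° C. to 30° C.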

corn = assay: Test Example 4: effect on crop by soil treatment (symbol c); details: for c: corn, effect grade on crop: 320 g/ha
Summary of the method: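 Grown at 25° C. to 30° C. in a greenhouse, the crops came from seed sown spot-wise in sterilized diluvial soil under roughly 1.5 cm of covering soil.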

Lolium multiflorum Lam. = assay: Test Example 5: herbicidal effect by foliage application, plastic box (symbol K); details: 320 g/ha, 3 weeks after application
Summary of the method: as §1

Setaria viridis = assay: Test Example 4: herbicidal effect by soil treatment (symbol G); details: for G: Setaria viridis, herbicidal effect grade: 320 g/ha
Summary of the method: (§5)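 Seeds were sown in sterilized diluvial soil, covered with about 1.5 cm of soil, and the soil surface was sprayed with a water-diluted emulsion of the compound at a predetermined rate. Plants grew in a greenhouse at 25° C. to 30° C.; effects were scored visually 3 weeks after application.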

Galium spurium = assay: Test Example 5: herbicidal effect by foliage application, plastic box (symbol Q); details: 320 g/ha, 3 weeks after application
Summary of the method: as §1

Abutilon theophrasti = assay: Test Example 4: herbicidal effect by soil treatment (symbol M); details: for M: Abutilon theophrasti, herbicidal effect grade: 320 g/ha
Summary of the method: as §5

[3] = system: Echinochloa oryzacola Vasing.; assay: Test Example 2: herbicidal activity, application during weed generation in submerged conditions (symbol A); details: Table 23; application herbicide amount 320 g/ha; grade 0-5 by criteria of Test Example 1
Summary of the method: (§6)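 Steps: fill pots with alluvial soil; add water to 4 cm depth; co-sow the three weeds; grow at 25° C. to 30° C. under glass; at 1–2 leaves, dose the floodwater with diluted emulsion; rate damage visually after 3 weeks.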

Monochoria vaginalis [4] = assay: Test Example 2: herbicidal activity, application during weed generation in submerged conditions (symbol C); details: Table 23; application herbicide amount 320 g/ha; grade 0-5 by criteria of Test Example 1
Summary of the method: as §6

Scirpus juncoides = assay: Test Example 2: herbicidal activity, application during weed generation in submerged conditions (symbol B); details: Table 23; application herbicide amount 320 g/ha; grade 0-5 by criteria of Test Example 1
Summary of the method: as §6

[5] = system: Echinochloa oryzacola Vasing.; assay: Test Example 1: herbicidal activity, application before weed generation in submerged conditions (symbol A); details: application herbicide amount 320 g/ha
Summary of the method: as §3

Alopecurus myosuroides = assay: Test Example 5: herbicidal effect by foliage application, plastic box (symbol J); details: 320 g/ha, 3 weeks after application
Summary of the method: as §1

wheat = assay: Test Example 4: effect on crop by soil treatment (symbol e); details: for e: wheat, effect grade on crop: 320 g/ha
Summary of the method: as §4

beet [6] = assay: Test Example 5: effect on crop by foliage application, plastic box (symbol f); details: 320 g/ha, 3 weeks after application
Summary of the method: as §2

[7] = application herbicide amount 320 g/ha

SMILES | N: Amaranthus retroflexus, herbicidal effect grade (Amaranthus retroflexus) | b: directly sowed rice plant, effect on crop grade (rice plant) | C (Monochoria vaginalis) herbicidal effect grade (Monochoria vaginalis [1]) | Effect on crop grade, f: beet (beet [2]) | Effect on crop grade, c: corn (corn; [7]) | K: Lolium multiflorum Lam., herbicidal effect grade (Lolium multiflorum Lam.) | Herbicidal effect grade, G: Setaria viridis (Setaria viridis; [7]) | Q: Galium spurium, herbicidal effect grade (Galium spurium) | Herbicidal effect grade, M: Abutilon theophrasti (Abutilon theophrasti; [7]) | Herbicidal effect grade, A: Echinochloa oryzacola Vasing. [3] | Herbicidal effect grade, C: Monochoria vaginalis (Monochoria vaginalis [4]) | Herbicidal effect grade, B: Scirpus juncoides (Scirpus juncoides) | A (Echinochloa oryzacola Vasing.) herbicidal effect grade [5] | J: Alopecurus myosuroides, herbicidal effect grade (Alopecurus myosuroides) | Effect on crop grade, e: wheat (wheat; [7]) | f: beet, effect on crop grade (beet [6]) | Herbicidal effect grade, C: Monochoria vaginalis (Monochoria vaginalis [1]) | Herbicidal effect grade, A: Echinochloa oryzacola Vasing. [5] | N: Amaranthus retroflexus, herbicidal effect (criteria 0-5) (Amaranthus retroflexus) | b: directly sowed rice plant, effect on crop (criteria 0-5) (rice plant) | further results
COCCON=C(CC1CC(O)=C(c2c(C)cc(-n3cc(Cl)cn3)cc2C)C1=O)C(C)C (stereo not shown) [9-022] | 0 (Herbicidal ratio of 5% or lower (almost no effect)) | 5 (Herbicidal ratio of 90% or more (almost completely withered)) | 0 (Herbicidal ratio of 5% or lower (almost no effect)) | 0 (Herbicidal ratio of 5% or lower (almost no effect)) | 1 (Herbicidal ratio of 5% or higher and lower than 20%) | 2 (Herbicidal ratio of 20% or higher and lower than 40%) | 5 (Herbicidal ratio of 90% or more (almost completely withered)) | 0 (Herbicidal ratio of 5% or lower (almost no effect)) | 0 (Herbicidal ratio of 5% or lower (almost no effect)) | 4 (Herbicidal ratio of 70% or higher and lower than 90%) | 0 (Herbicidal ratio of 5% or lower (almost no effect)) | 0 (Herbicidal ratio of 5% or lower (almost no effect)) | 5 (Herbicidal ratio of 90% or more (almost completely withered)) | 2 (Herbicidal ratio of 20% or higher and lower than 40%) | 0 (Herbicidal ratio of 5% or lower (almost no effect)) | 0 (Herbicidal ratio of 5% or lower (almost no effect)) |  |  |  |  | 
C=CCOC1=C(c2c(C)cc(C)cc2C)C(=O)C(CC(C)=NOC)C1 (stereo not shown) [1-007] | 0 (Herbicidal ratio of 5% or lower (almost no effect)) | 0 (Herbicidal ratio of 5% or lower (almost no effect)) |  |  |  | 5 (Herbicidal ratio of 90% or more (almost completely withered)) |  | 0 (Herbicidal ratio of 5% or lower (almost no effect)) |  | 0 (Herbicidal ratio of 5% or lower (almost no effect)) | 0 (Herbicidal ratio of 5% or lower (almost no effect)) | 0 (Herbicidal ratio of 5% or lower (almost no effect)) |  | 3 (Herbicidal ratio of 40% or higher and lower than 70%) |  | 0 (Herbicidal ratio of 5% or lower (almost no effect)) | 0 (Herbicidal ratio of 5% or lower (almost no effect)) | 0 (Herbicidal ratio of 5% or lower (almost no effect)) |  |  | c (corn) effect on crop grade (corn; [7]): 0 (Herbicidal ratio of 5% or lower (almost no effect)); G (Setaria viridis) herbicidal effect grade (Setaria viridis; [7]): 0 (Herbicidal ratio of 5% or lower (almost no effect)); M (Abutilon theophrasti) herbicidal effect grade (Abutilon theophrasti; [7]): 0 (Herbicidal ratio of 5% or lower (almost no effect)); e (wheat) effect on crop grade (wheat; [7]): 0 (Herbicidal ratio of 5% or lower (almost no effect))
CC#Cc1cc(C)c(C2=C(O)CC(CC(=NOCC(F)(F)F)C(C)C)C2=O)c(C)c1 (stereo not shown) [9-015] | 0 (Herbicidal ratio of 5% or lower (almost no effect)) | 5 (Herbicidal ratio of 90% or more (almost completely withered)) | 1 (Herbicidal ratio of 5% or higher and lower than 20%) | 0 (Herbicidal ratio of 5% or lower (almost no effect)) | 0 (Herbicidal ratio of 5% or lower (almost no effect)) | 5 (Herbicidal ratio of 90% or more (almost completely withered)) | 5 (Herbicidal ratio of 90% or more (almost completely withered)) | 2 (Herbicidal ratio of 20% or higher and lower than 40%) | 0 (Herbicidal ratio of 5% or lower (almost no effect)) | 5 (Herbicidal ratio of 90% or more (almost completely withered)) |  | 3 (Herbicidal ratio of 40% or higher and lower than 70%) | 5 (Herbicidal ratio of 90% or more (almost completely withered)) | 5 (Herbicidal ratio of 90% or more (almost completely withered)) | 3 (Herbicidal ratio of 40% or higher and lower than 70%) | 0 (Herbicidal ratio of 5% or lower (almost no effect)) |  |  |  |  | 
CC(CC1CC(O)=C(c2c(C)cc(C)cc2C)C1=O)=NOCC#N (stereo not shown) [1-102] |  |  |  |  |  |  |  |  |  | 5 (Herbicidal ratio of 90% or more (almost completely withered)) | 2 (Herbicidal ratio of 20% or higher and lower than 40%) | 2 (Herbicidal ratio of 20% or higher and lower than 40%) |  |  |  |  |  | 5 (Herbicidal ratio of 90% or more (almost completely withered)) | 0 (Herbicidal ratio of 5% or lower (almost no effect)) | 5 (Herbicidal ratio of 90% or more (almost completely withered)) | f: beet, effect grade on crop (beet [2]): 0 (Herbicidal ratio of 5% or lower (almost no effect)); c: corn, effect grade on crop (corn): 0 (Herbicidal ratio of 5% or lower (almost no effect)); K: Lolium multiflorum Lam., herbicidal effect (criteria 0-5) (Lolium multiflorum Lam.): 5 (Herbicidal ratio of 90% or more (almost completely withered)); G: Setaria viridis, herbicidal effect grade (Setaria viridis): 5 (Herbicidal ratio of 90% or more (almost completely withered)); Q: Galium spurium, herbicidal effect (criteria 0-5) (Galium spurium): 0 (Herbicidal ratio of 5% or lower (almost no effect)); M: Abutilon theophrasti, herbicidal effect grade (Abutilon theophrasti): 0 (Herbicidal ratio of 5% or lower (almost no effect)); J: Alopecurus myosuroides, herbicidal effect (criteria 0-5) (Alopecurus myosuroides): 5 (Herbicidal ratio of 90% or more (almost completely withered)); e: wheat, effect grade on crop (wheat): 0 (Herbicidal ratio of 5% or lower (almost no effect)); f: beet, effect on crop (criteria 0-5) (beet [6]): 0 (Herbicidal ratio of 5% or lower (almost no effect))
CCCCCCCCS(=O)(=O)OC1=C(c2c(C)cc(C)cc2C)C(=O)C(CC(C)=NOC)C1 (stereo not shown) [1-107] |  |  |  |  |  |  |  |  |  | 5 (Herbicidal ratio of 90% or more (almost completely withered)) | 0 (Herbicidal ratio of 5% or lower (almost no effect)) | 2 (Herbicidal ratio of 20% or higher and lower than 40%) |  |  |  |  | 1 (Herbicidal ratio of 5% or higher and lower than 20%) | 5 (Herbicidal ratio of 90% or more (almost completely withered)) | 0 (Herbicidal ratio of 5% or lower (almost no effect)) | 5 (Herbicidal ratio of 90% or more (almost completely withered)) | f: beet, effect grade on crop (beet [2]): 0 (Herbicidal ratio of 5% or lower (almost no effect)); c: corn, effect grade on crop (corn): 0 (Herbicidal ratio of 5% or lower (almost no effect)); K: Lolium multiflorum Lam., herbicidal effect (criteria 0-5) (Lolium multiflorum Lam.): 5 (Herbicidal ratio of 90% or more (almost completely withered)); G: Setaria viridis, herbicidal effect grade (Setaria viridis): 3 (Herbicidal ratio of 40% or higher and lower than 70%); M: Abutilon theophrasti, herbicidal effect grade (Abutilon theophrasti): 0 (Herbicidal ratio of 5% or lower (almost no effect)); J: Alopecurus myosuroides, herbicidal effect (criteria 0-5) (Alopecurus myosuroides): 5 (Herbicidal ratio of 90% or more (almost completely withered)); e: wheat, effect grade on crop (wheat): 0 (Herbicidal ratio of 5% or lower (almost no effect)); f: beet, effect on crop (criteria 0-5) (beet [6]): 0 (Herbicidal ratio of 5% or lower (almost no effect))
